The values that follow come from paper PMC5543288, “Psychostimulant Effect of the Synthetic Cannabinoid JWH-018 and AKB48: Behavioral, Neurochemical, and Dopamine Transporter Scan Imaging Studies in Mice” (Frontiers in Psychiatry, 2017).

Assay [1] relates to dopamine (DA) transmission in the NAc shell. Also on record: method as in PMID 26327678. To be noted: 0.25 mg/kg i.p., not at 0.125 or 0.5 mg/kg i.p.; not in NAc core and mPFC; ref [9]; cited from earlier work.
Assay [2] concerns DA release in the nucleus accumbens (NAc) shell. The experiment in a line: In vivo brain microdialysis, NAc shell extracellular DA. Set-up: species or system mouse. As for the experimental part:
Male ICR (CD-1®) mice, 25–30 g (ENVIGO. Harlan Italy; S. Pietro al Natisone, Italy) were anesthetized with Isoflurane (3%; 200 ml/min) and implanted with vertical dialysis probe (1 mm dialyzing portion) prepared with AN69 fibers (Hospal Dasco, Bologna, Italy) in the NAc shell (A + 1.4, L 0.4 from bregma, V-4.8 from dura) according to the mouse brain atlas by Paxinos and Franklin ([40]). On the day following surgery, probes were perfused with Ringer’s solution (147 mM NaCl, 4 mM KCl, 2.2 mM CaCl2) at a constant rate of 1 µl/min. Dialyzate samples (10 µl) were injected into an HPLC equipped with a reverse phase column (C8 3.5 um, Waters, USA) and a coulometric detector (ESA, Coulochem II) to quantify DA. The first electrode of the detector was set at +130 mV (oxidation) and the second at −175 mV (reduction). The composition of the mobile phase was as follows: 50 mM NaH2PO4, 0.1 mM Na2-EDTA, 0.5 mM n-octyl sodium sulfate, 15% (v/v) methanol, pH 5.5. […] At the end of each experiment, animals were sacrificed and their brains removed and stored in formalin (8%) for histological examination to verify the correct placement of the microdialysis probe.

For `CCCCCn1cc(C(=O)c2cccc3ccccc23)c2ccccc21` [JWH-018, 1-pentyl-3-(1-naphthoyl)indole], the “dopamine (DA) transmission in the NAc shell” value in assay [1] is “increases”. For the same compound, in assay [2] (JWH-018 0.3 mg/kg i.p. (long-lasting), AKB48 0.3 mg/kg i.p. (peak)), the “increase of NAc shell extracellular DA levels (maximal/peak)” value is ~ 150 % of baseline values. Also, the “NAc shell extracellular DA levels” value in assay [2] (awake freely moving mice, i.p.: amphetamine 10 mg/kg, cocaine 20 mg/kg, JWH-018 0.3 mg/kg, AKB48 0.3 mg/kg) is “significantly increased”.
